Values quoted from earlier work in US12649758B2, “Industrial method for simultaneously preparing Stevia rebaudiana chlorogenic acid and stevioside” (Chenguang Biotech Group Co., Ltd., priority 2018, dated 2026).

For C=C1C[C@@]23CC[C@H]4[C@@](C)(CCC[C@@]4(C)C(=O)O[C@@H]4O[C@H](CO)[C@@H](O)[C@H](O)[C@H]4O)[C@@H]2CC[C@]1(O[C@@H]1O[C@H](CO)[C@@H](O)[C@H](O)[C@H]1O[C@@H]1O[C@H](CO)[C@@H](O)[C@H](O)[C@H]1O)C3 [Stevioside, stevioside], the “sweetness relative to sucrose” value is listed as 300 to 500 times of sucrose.
